Data set [1] has as its system mouse NTSR1 overexpressing tumors. Put plainly: [177Lu]-Compound A biodistribution in CT-26 syngeneic model. Particulars: 6-48 hours post injection. Format: in vivo. The procedure:
Tumor uptake was maintained at 2.5-7% injected dose/g (ID/g) from 6-48 hours post injection.

Data set [2] relates to CT-26-mNTSR1 tumor. The data set is described as follows: Combination with checkpoint inhibitors, relative tumor volume in the CT-26-mNTSR1 mouse model. Format: in vivo. The procedure: An in vivo study was conducted to test the effect of [^225Ac]-Compound A (as described in Example 3) combined with checkpoint inhibitors, α-CTLA-4 and α-PD-1 antibodies, on relative tumor volume in the CT-26-mNTSR1 mouse model.

The test system of data set [3] is CT-26-mNTSR1 tumor. The data set is described as follows: Combination with checkpoint inhibitors, survival in the CT-26-mNTSR1 mouse model. Format: in vivo. The conditions noted are these: for Overall survival: intravenous. The procedure: An in vivo study was conducted to test the effect of [^225Ac]-Compound A (as described in Example 3) combined with checkpoint inhibitors, α-CTLA-4 and α-PD-1 antibodies, on survival in the CT-26-mNTSR1 mouse model.
Separately, an in vivo study was conducted to test the effect of [^225Ac]-Compound A (as
described in Example 4) at a different dosage in combination with checkpoint inhibitors, α-CTLA-4 and α-PD-1 antibodies, on survival in the CT-26-mNTSR1 mouse model.

Data set [4] concerns CT-26-mNTSR1 tumor. Put plainly: Efficacy study in immunocompetent CT-26-mNTSR1 tumor bearing-mice (tumor volume). Format: in vivo, mouse. Particulars: different doses; CT-26-mNTSR1 syngeneic mice with an intact immune system.

A value given as a limit tells only on which side of the number the result lay.

Turning to `COc1cccc(OC)c1-c1cc(C(=O)NC2(C(=O)O)C3CC4CC(C3)CC2C4)nn1-c1ccc(C(=O)N(C)CCCN(C)CCCN(C)C(=O)CN2CCN(CC(=O)O)CCN(CC(=O)O)CCN(CC(=O)O)CC2)cc1C(C)C` (stereo not drawn) [[177Lu]-Compound A, metal not drawn], in data set [1], the Tumor uptake is reported as 2.5-7 % injected dose/g (ID/g).
Take `COc1cccc(OC)c1-c1cc(C(=O)NC2(C(=O)O)C3CC4CC(C3)CC2C4)nn1-c1ccc(C(=O)N(C)CCCN(C)CCCN(C)C(=O)CN2CCN(CC(=O)O)CCN(CC(=O)O)CCN(CC(=O)O)CC2)cc1C(C)C` (stereo not drawn) [[^225Ac]-Compound A, metal not drawn]: the “Efficacy (tumor volume)” value in the data set on CT-26-mNTSR1 tumor [2] (0.185 MBq/kg or 0.555 MBq/kg single-dose, intravenous, co-administered with 5 mg/kg of CTLA-4 or PD-1 or both) is “increased efficacy was observed including tumor suppression”. The “Tumor regression, duration” value with CT-26-mNTSR1 tumor [2] (0.555 MBg/kg dose, co-administration with both CTLA-4 and PD-1) is at least 40 days post-treatment. The Tumor volume result in the data set with CT-26-mNTSR1 tumor [2] (0.555 MBg/kg dose, co-administration with both CTLA-4 and PD-1, compared to vehicle control and 225Ac-radiopharmaceutical alone groups) is given as “significantly smaller tumor volume”; with CT-26-mNTSR1 tumor [2] (0.555 MBq/kg single-dose, intravenous, alone, relative to the vehicle control group) it was “greater reductions in tumor volume”. Also, the Overall survival entry is given as “increased overall survival” with CT-26-mNTSR1 tumor [3] (0.185 MBq/kg single-dose, with 5 mg/kg α-CTLA-4 or α-PD-1 (or both), compared to vehicle control or [225Ac]-Compound A alone); “increased overall survival” in the data set on CT-26-mNTSR1 tumor [3] (0.555 MBq/kg single-dose, with 5 mg/kg α-CTLA-4 or α-PD-1, compared to the vehicle and [225Ac]-Compound A single treatment group). In addition, in the data set on CT-26-mNTSR1 tumor [3] (0.555 MBq/kg, co-administration with both α-CTLA-4 and α-PD-1, compared to vehicle control or [225Ac]-Compound A with or without either antibody), the Survival entry was “increased survival”. For the same molecule, the “Efficacy in reducing tumor volume” value in the data set with CT-26-mNTSR1 tumor [4] is given as “enhanced efficacy in reducing tumor volume”.

These data come from US20250099633A1, “NTSR1-TARGETED RADIOPHARMACEUTICALS AND CHECKPOINT INHIBITOR COMBINATION THERAPY” (Fusion Pharmaceuticals Inc., priority 2022, published 2025).
